pEC50, pKd: −log10 of the molar value.
Experiments:
[1] = target: T1, Thyroid hormone receptor beta (Homo sapiens, UniProt P10828)
T1 sequence (P10828 whole entry): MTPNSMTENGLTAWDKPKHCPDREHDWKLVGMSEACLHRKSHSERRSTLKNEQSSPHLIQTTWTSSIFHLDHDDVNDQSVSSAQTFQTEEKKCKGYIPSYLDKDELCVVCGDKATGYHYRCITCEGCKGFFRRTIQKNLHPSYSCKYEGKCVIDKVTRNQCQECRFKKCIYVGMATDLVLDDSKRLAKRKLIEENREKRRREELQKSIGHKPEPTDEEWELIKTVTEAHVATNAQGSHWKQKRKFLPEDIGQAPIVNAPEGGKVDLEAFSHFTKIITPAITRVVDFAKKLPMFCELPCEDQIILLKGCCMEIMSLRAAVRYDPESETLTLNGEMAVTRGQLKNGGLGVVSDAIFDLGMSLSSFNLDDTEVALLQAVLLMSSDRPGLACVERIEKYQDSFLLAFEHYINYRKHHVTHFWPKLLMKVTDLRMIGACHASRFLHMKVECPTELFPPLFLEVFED

[2] = target: T2, Thyroid hormone receptor alpha (Homo sapiens, UniProt P10827)
T2 sequence (P10827 whole entry): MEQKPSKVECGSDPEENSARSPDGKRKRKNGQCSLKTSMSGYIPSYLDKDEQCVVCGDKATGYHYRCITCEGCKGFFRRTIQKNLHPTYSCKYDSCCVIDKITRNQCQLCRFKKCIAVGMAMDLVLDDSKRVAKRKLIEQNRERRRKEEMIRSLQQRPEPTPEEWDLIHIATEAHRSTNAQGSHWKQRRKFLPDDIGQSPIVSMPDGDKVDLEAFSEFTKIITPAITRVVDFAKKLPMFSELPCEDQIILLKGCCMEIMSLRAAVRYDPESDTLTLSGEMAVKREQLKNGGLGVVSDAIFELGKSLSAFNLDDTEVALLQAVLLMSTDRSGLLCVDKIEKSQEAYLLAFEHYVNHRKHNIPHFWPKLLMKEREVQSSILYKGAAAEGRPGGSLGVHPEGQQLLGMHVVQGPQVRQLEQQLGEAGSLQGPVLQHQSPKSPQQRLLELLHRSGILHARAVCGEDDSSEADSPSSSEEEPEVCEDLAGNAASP

[3] = target: T1, Thyroid hormone receptor beta; remark: listed apart in the source
[4] = target: T2, Thyroid hormone receptor alpha; remark: listed apart in the source
Description: Effect on human TRalpha transactivation activity in HeLa cells by luciferase reporter assay

[5] = target: T2, Thyroid hormone receptor alpha; remark: listed apart in the source
Description: Effect on human TRalpha transactivation activity in U2OS cells by luciferase reporter assay

[6] = target: T1, Thyroid hormone receptor beta; remark: listed apart in the source

| pEC50 [1] | pKd [2] | pKd [3] | pEC50 [4] | pEC50 [5] | pEC50 [6] | SMILES |
| --- | --- | --- | --- | --- | --- | --- |
| 5.40 | 7.38 | 7.28 | 7.57 | 6.84 | 6.74 | Cc1cc(Oc2c(I)cc(CC3NC(=O)NC3=O)cc2I)ccc1O (centres undefined) |
| < 4.70 | 5.77 | 5.70 | < 5.00 | < 4.70 | < 5.00 | O=C1NC(=O)C(Cc2cc(I)c(Oc3ccc(O)cc3)c(I)c2)N1 (centres undefined) |
| 5.28 | 7.37 | 7.17 | 7.36 | 6.69 | 6.28 | O=C1NC(=O)C(Cc2cc(I)c(Oc3ccc(O)c(Br)c3)c(I)c2)N1 (centres undefined) |
| 5.70 | 7.60 | 7.31 | 7.41 | 6.84 | 7.00 | O=C1NC(=O)C(Cc2cc(I)c(Oc3ccc(O)c(C4CC4)c3)c(I)c2)N1 (centres undefined) |
| 6.38 | 7.77 | 7.74 | 8.08 | 6.89 | 7.49 | CC(C)c1cc(Oc2c(Br)cc(CC3NC(=O)NC3=O)cc2Br)ccc1O (centres undefined) |
| 5.70 | 7.62 | 7.44 | 7.68 | 6.98 | 6.67 | O=C1NC(=O)C(Cc2cc(I)c(Oc3ccc(O)c(I)c3)c(I)c2)N1 (centres undefined) |
| 5.10 | 7.09 | 6.92 | 7.38 | 6.06 | 6.58 | COc1cc(Oc2c(I)cc(CC3NC(=O)NC3=O)cc2I)ccc1O (centres undefined) |

| SMILES | pEC50 [1] | pKd [2] | pKd [3] | pEC50 [4] | pEC50 [5] | pEC50 [6] |
| --- | --- | --- | --- | --- | --- | --- |
| CCc1cc(Oc2c(I)cc(CC3NC(=O)NC3=O)cc2I)ccc1O (centres undefined) | 5.85 | 7.82 | 7.74 | 8.00 | 7.06 | 7.57 |
| CC(C)c1cc(Oc2c(I)cc(CC3NC(=O)NC3=O)cc2I)ccc1O (centres undefined) | 6.41 | 8.92 | 8.77 | 7.96 | 7.47 | 7.24 |

— ChEMBL document CHEMBL1143954, “Characterization of thyroid hormone receptor alpha (TRalpha)-specific analogs with varying inner- and outer-ring substituents” (Bioorg Med Chem, 2008)
